According to patent US20090099167A1, “Organic compounds” (Novartis Institutes for Biomedical Research, priority 2004, published 2009):
pIC50: −log10 of the molar value. Read-outs that look alike come from different tables or passages of the source.

Assays:
human Flt-3 = biological target: T1, human Flt-3 (Homo sapiens, UniProt P36888); experiment: Flt3 kinase inhibition, GST-Flt-3, 33P incorporation into poly(Glu,Tyr); format: biochemical
T1 construct: expressing the amino acid region amino acids 563-993 of the cytoplasmic kinase domain of human Flt-3; made in house; host or cells: Sf9 (baculovirus)
T1 sequence (P36888 563-993): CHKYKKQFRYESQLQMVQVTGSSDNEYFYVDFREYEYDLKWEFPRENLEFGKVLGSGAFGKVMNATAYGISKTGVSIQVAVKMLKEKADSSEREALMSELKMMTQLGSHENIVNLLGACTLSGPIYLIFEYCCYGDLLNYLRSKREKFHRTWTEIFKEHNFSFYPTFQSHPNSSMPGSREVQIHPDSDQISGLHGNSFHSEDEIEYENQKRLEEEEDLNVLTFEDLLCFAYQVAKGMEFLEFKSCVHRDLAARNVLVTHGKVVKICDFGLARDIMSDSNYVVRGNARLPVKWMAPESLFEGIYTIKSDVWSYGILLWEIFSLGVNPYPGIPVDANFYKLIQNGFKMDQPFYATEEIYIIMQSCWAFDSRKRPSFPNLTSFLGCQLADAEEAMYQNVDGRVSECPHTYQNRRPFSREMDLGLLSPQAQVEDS
Description: (§1) The compounds to be tested are then diluted in culture medium (without FCS, with 0.1% bovine serum albumin) and added to the cells. (Controls comprise medium without test compounds). After two hours' incubation at 37° C., recombinant VEGF is added; the final VEGF concentration is 20 ng/ml). After a further five minutes incubation at 37° C., the cells are washed twice with ice-cold PBS (phosphate-buffered saline) and immediately lysed in 100 μl lysis buffer per well. The lysates are then centrifuged to remove the cell nuclei, and the protein concentrations of the supernatants are determined using a commercial protein assay (BIORAD). The lysates can then either be immediately used or, if necessary, stored at −20° C. A sandwich ELISA is carried out to measure the VEGF-R2 phosphorylation: a monoclonal antibody to VEGF-R2 (for example Mab 1495.12.14; ProQinase, Freiburg, Germany) is immobilized on black ELISA plates (OptiPlate™ HTRF-96 from Packard). The plates are then washed and the remaining free protein-binding sites are saturated with 3% TopBlock® (Juro, Cat. # TB232010) in phosphate buffered saline with Tween 20® (polyoxyethylen(20)-sorbitane monolaurate, ICI/Uniquema) (PBST). The cell lysates (20 μg protein per well) are then incubated in these plates overnight at 4° C. together with an antiphosphotyrosine antibody coupled with alkaline phosphatase (PY20:AP from Zymed). […] The luminescence is measured in a Packard Top Count Microplate Scintillation Counter. The difference between the signal of the positive control (stimulated with VEGF) and that of the negative control (not stimulated with VEGF) corresponds to VEGF-induced VEGF-R2 phosphorylation (=100%). The activity of the tested substances is calculated as percent inhibition of VEGF-induced VEGF-R2 phosphorylation, wherein the concentration of substance that induces half the maximum inhibition is defined as the IC50 (inhibitory dose for 50% inhibition). […] Flt3 kinase inhibition is determined as follows: The baculovirus donor vector pFbacG01 (GIBCO) is used to generate a recombinant baculovirus expressing the amino acid region amino acids 563-993 of the cytoplasmic kinase domain of human Flt-3. The coding sequence for the cytoplasmic domain of Flt-3 is amplified by PCR from human c-DNA libraries (Clontech). The amplified DNA fragments and the pFbacG01 vector are made compatible for ligation by digestion with BamH1 and HindIII. Ligation of these DNA fragments results in the baculovirus donor plasmid Flt-3(1.1). The production of the viruses, the expression of proteins in Sf9 cells and the purification of the GST-fused proteins are performed as follows: Production of virus: Transfer vector (pFbacG01-Flt-3) containing the Flt-3 kinase domain is transfected into the DH10Bac cell line (GIBCO) and the transfected cells are plated on selective agar plates. Colonies without insertion of the fusion sequence into the viral genome (carried by the bacteria) are blue. Single white colonies are picked and viral DNA (bacmid) is isolated from the bacteria by standard plasmid purification procedures. Sf9 or Sf21 cells (American Type Culture Collection) are then transfected in flasks with the viral DNA using Cellfectin reagent. Determination of small scale protein expression in Sf9 cells: Virus containing media is collected from the transfected cell culture and used for infection to increase its titre. Virus containing media obtained after two rounds of infection is used for large-scale protein expression. For large-scale protein expression 100 cm^2 round tissue culture plates are seeded with 5×10^7 cells/plate and infected with 1 mL of virus-containing media (approx. 5 MOIs). After 3 days the cells are scraped off the plate and centrifuged at 500 rpm for 5 min. Cell pellets from 10-20, 100 cm^2 plates, are resuspended in 50 mL of ice-cold lysis buffer (25 mMTris-HCl, pH 7.5, 2 mM EDTA, 1% NP-40, 1 mM DTT, 1 mM PMSF). The cells are stirred on ice for 15 min and then centrifuged at 5000 rpms for 20 min. […]

[1] = biological target: T2, human VEGF-R2 receptor (KDR) (Homo sapiens, UniProt P35968); experiment: VEGF-induced KDR autophosphorylation in transfected CHO cells, sandwich ELISA; format: cell-based; settings: Table 5; read-out: KDR, IC50 class
T2 construct: expressed in transfected cells; host or cells: CHO cells
T2 sequence (P35968 20-1356): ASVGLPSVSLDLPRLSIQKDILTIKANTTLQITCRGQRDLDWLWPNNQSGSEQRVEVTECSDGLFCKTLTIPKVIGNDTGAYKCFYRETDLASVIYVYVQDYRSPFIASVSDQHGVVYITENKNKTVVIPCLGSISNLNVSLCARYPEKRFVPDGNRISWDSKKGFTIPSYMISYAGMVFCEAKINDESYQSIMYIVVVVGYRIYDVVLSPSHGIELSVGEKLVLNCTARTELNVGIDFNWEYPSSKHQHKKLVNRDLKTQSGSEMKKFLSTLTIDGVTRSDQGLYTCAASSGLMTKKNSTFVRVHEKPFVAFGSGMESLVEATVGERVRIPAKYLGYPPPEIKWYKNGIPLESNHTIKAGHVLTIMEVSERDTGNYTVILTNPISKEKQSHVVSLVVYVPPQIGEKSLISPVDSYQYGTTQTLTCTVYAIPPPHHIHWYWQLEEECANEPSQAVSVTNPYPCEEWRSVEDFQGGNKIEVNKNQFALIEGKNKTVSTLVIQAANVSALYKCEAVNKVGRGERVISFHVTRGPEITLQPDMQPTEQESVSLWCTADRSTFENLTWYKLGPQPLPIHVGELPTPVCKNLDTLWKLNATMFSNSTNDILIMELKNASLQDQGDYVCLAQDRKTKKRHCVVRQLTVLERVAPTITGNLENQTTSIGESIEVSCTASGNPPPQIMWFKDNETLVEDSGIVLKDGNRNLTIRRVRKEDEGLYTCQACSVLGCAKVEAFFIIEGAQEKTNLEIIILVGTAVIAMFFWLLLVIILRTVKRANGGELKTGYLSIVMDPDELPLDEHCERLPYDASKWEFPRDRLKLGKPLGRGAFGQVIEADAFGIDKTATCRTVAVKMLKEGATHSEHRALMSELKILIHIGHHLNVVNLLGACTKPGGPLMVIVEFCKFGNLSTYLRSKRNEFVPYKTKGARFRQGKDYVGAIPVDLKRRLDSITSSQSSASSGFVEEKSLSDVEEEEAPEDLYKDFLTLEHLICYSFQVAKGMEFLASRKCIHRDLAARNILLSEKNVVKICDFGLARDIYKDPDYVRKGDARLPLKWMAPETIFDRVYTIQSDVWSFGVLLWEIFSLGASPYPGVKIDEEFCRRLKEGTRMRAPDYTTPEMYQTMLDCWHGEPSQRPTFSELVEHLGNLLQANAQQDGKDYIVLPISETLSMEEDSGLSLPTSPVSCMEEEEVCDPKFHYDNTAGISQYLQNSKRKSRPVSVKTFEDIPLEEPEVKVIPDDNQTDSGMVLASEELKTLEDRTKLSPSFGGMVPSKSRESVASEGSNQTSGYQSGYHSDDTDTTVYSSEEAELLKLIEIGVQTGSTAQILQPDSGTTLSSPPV
Description: as §1

[2] = Table 5, read-out: Flt-3, IC50 class

Row | SMILES | pIC50 (human Flt-3; Table 4, read-out: Flt-3, activity (IC50 for kinase inhibition)) | pIC50 (human Flt-3; [2]) | pIC50 [1]
1 | CN1CCN(c2cccc(-c3cnn4c(N)c(-c5ccc(O)cc5)cnc34)c2)CC1 [Example 39, 4-{7-Amino-3-[3-(4-methyl-piperazin-1-yl)-phenyl]-pyrazolo[1,5-a]pyrimidin-6-yl}-phenol] | > 5.00 | – | –
2 | Cc1nc2c(-c3cccc(N4CCN(C)CC4)c3)cnn2c(N)c1-c1ccc(F)c(Cl)c1 [Example 82, 6-(3-Chloro-4-fluoro-phenyl)-5-methyl-3-[3-(4-methyl-piperazin-1-yl)-phenyl]pyrazolo[1,5-a]pyrimidin-7-ylamine] | – | < 5.00 | < 5.00
3 | Cc1nc2c(-c3ccc(N4CCN(C)CC4)cc3)cnn2c(N)c1-c1ccc(F)c(Cl)c1 [Example 83, 6-(3-Chloro-4-fluoro-phenyl)-5-methyl-3-[4-(4-methyl-piperazin-1-yl)-phenyl]-pyrazolo[1,5-a]pyrimidin-7-ylamine] | – | < 5.00 | < 5.00
4 | CN1CCN(c2cccc(-c3cnn4c(N)c(Cc5cccc(Br)c5)cnc34)c2)CC1 [Example 85, 6-(3-Bromo-benzyl)-3-[3-(4-methyl-piperazin-1-yl)-phenyl]pyrazolo[1,5-a]pyrimidin-7-ylamine] | – | < 5.00 | < 5.00
5 | COc1ccc(-c2cnn3c(N)c(-c4cccc(Cl)c4)c(C)nc23)cc1 [Example 88, 6-(3-Chloro-phenyl)-3-(4-methoxy-phenyl)-5-methyl-pyrazolo[1,5-a]pyrimidin-7-ylamine] | – | < 5.00 | 5.00 to 6.00
6 | Cc1nc2c(-c3cccc(N4C[C@@H](C)O[C@@H](C)C4)c3)cnn2c(N)c1-c1cccc(Cl)c1 [Example 89, 6-(3-Chloro-phenyl)-3-[3-((2R,6S)-2,6-dimethyl-morpholin-4-yl)-phenyl]-5-methyl-pyrazolo[1,5-a]pyrimidin-7-ylamine] | – | < 5.00 | 5.00 to 6.00
7 | Cc1nc2c(-c3cccc(N4CCN(CCO)CC4)c3)cnn2c(N)c1-c1cccc(Cl)c1 [Example 90, 2-(4-{3-[7-Amino-6-(3-chloro-phenyl)-5-methyl-pyrazolo[1,5-a]pyrimidin-3-yl]-phenyl}-piperazin-1-yl)-ethanol] | – | < 5.00 | 5.00 to 6.00
8 | CN1CCN(c2cccc(-c3cnn4c(N)c(Cc5ccccc5)cnc34)c2)CC1 [Example 91, 6-Benzyl-3-[3-(4-methyl-piperazin-1-yl)-phenyl]-pyrazolo[1,5-a]pyrimidin-7-ylamine] | – | < 5.00 | 5.00 to 6.00
9 | COc1ccc(-c2cnn3c(N)c(-c4cccc(Cl)c4)c(CF)nc23)cc1OC [Example 92, 6-(3-Chloro-phenyl)-3-(3,4-dimethoxy-phenyl)-5-fluoromethyl-pyrazolo[1,5-a]pyrimidin-7-ylamine] | – | < 5.00 | 5.00 to 6.00
10 | COc1ccc(-c2cnn3c(N)c(-c4cccc(Cl)c4)c(C)nc23)cc1OC [Example 93, 6-(3-Chloro-phenyl)-3-(3,4-dimethoxy-phenyl)-5-methyl-pyrazolo[1,5-a]pyrimidin-7-ylamine] | – | < 5.00 | < 5.00

Next, values leading:

Row | pIC50 (human Flt-3; Table 4, read-out: Flt-3, activity (IC50 for kinase inhibition)) | pIC50 (human Flt-3; [2]) | pIC50 [1] | SMILES
11 | – | < 5.00 | > 6.00 | Cc1nc2c(-c3cccc(N4CCN(C)CC4)c3)cnn2c(N)c1-c1cccc(Cl)c1 [Example 72, 6-(3-Chloro-phenyl)-5-methyl-3-[3-(4-methyl-piperazin-1-yl)-phenyl]-pyrazolo[1,5-a]pyrimidin-7-ylamine]
12 | – | < 5.00 | > 6.00 | Cc1nc2c(-c3ccc(N4CCN(C)CC4)cc3)cnn2c(N)c1-c1cccc(Cl)c1 [Example 73, 6-(3-Chloro-phenyl)-5-methyl-3-[4-(4-methyl-piperazin-1-yl)-phenyl]-pyrazolo[1,5-a]pyrimidin-7-ylamine]
13 | – | – | 5.00 to 6.00 | COc1cc(N2CCN(C)CC2)ccc1-c1cnn2c(N)c(-c3cccc(Cl)c3)c(C)nc12 [Example 75, 6-(3-Chloro-phenyl)-3-[2-methoxy-4-(4-methyl-piperazin-1-yl)-phenyl]-5-methyl-pyrazolo[1,5-a]pyrimidin-7-ylamine]
14 | – | > 6.00 | > 6.00 | COc1cc(N2CCN(C)CC2)ccc1-c1cnn2c(N)c(-c3cccc(O)c3)cnc12 [Example 76, 3-{7-Amino-3-[2-methoxy-4-(4-methyl-piperazin-1-yl)-phenyl]-pyrazolo[1,5-a]pyrimidin-6-yl}-phenol]
15 | – | > 6.00 | > 6.00 | CN1CCN(c2ccc(-c3cnn4c(N)c(-c5ccccc5Cl)cnc34)cc2)CC1 [Example 77, 6-(2-Chloro-phenyl)-3-[4-(4-methyl-piperazin-1-yl)-phenyl]-pyrazolo[1,5-a]pyrimidin-7-ylamine]
16 | – | > 6.00 | > 6.00 | CN1CCN(c2cccc(-c3cnn4c(N)c(-c5ccccc5Cl)cnc34)c2)CC1 [Example 78, 6-(2-Chloro-phenyl)-3-[3-(4-methyl-piperazin-1-yl)-phenyl]-pyrazolo[1,5-a]pyrimidin-7-ylamine]
17 | – | < 5.00 | 5.00 to 6.00 | Cc1nc2c(-c3ccc(N4CCN(C)CC4)cc3)cnn2c(N)c1-c1ccc(F)cc1 [Example 79, 6-(4-Fluoro-phenyl)-5-methyl-3-[4-(4-methyl-piperazin-1-yl)-phenyl]-pyrazolo[1,5-a]pyrimidin-7-ylamine]
18 | – | 5.00 to 6.00 | 5.00 to 6.00 | Cc1nc2c(-c3cccc(N4CCN(C)CC4)c3)cnn2c(N)c1-c1ccc(F)cc1 [Example 80, 6-(4-Fluoro-phenyl)-5-methyl-3-[3-(4-methyl-piperazin-1-yl)-phenyl]-pyrazolo[1,5-a]pyrimidin-7-ylamine]
19 | – | < 5.00 | > 6.00 | Cc1nc2c(-c3cccc(N4CCN(C5CCN(C)CC5)CC4)c3)cnn2c(N)c1-c1cccc(Cl)c1 [Example 81, 6-(3-Chloro-phenyl)-5-methyl-3-{3-[4-(1-methyl-piperidin-4-yl)-piperazin-1-yl]-phenyl}-pyrazolo[1,5-a]pyrimidin-7-ylamine]
20 | – | < 5.00 | 5.00 to 6.00 | Cc1nc2c(-c3cccc(N4CCN(C)CC4)c3)cnn2c(N)c1-c1cccc(Br)c1 [Example 84, 6-(3-Bromo-phenyl)-5-methyl-3-[3-(4-methyl-piperazin-1-yl)-phenyl]-pyrazolo[1,5-a]pyrimidin-7-ylamine]
21 | – | < 5.00 | > 6.00 | CN1CCN(c2cccc(-c3cnn4c(N)c(-c5cccc(Br)c5)cnc34)c2)CC1 [Example 86, 6-(3-Bromo-phenyl)-3-[3-(4-methyl-piperazin-1-yl)-phenyl]-pyrazolo[1,5-a]pyrimidin-7-ylamine]
22 | – | < 5.00 | 5.00 to 6.00 | Cc1nc2c(-c3cccc(N4CCOCC4)c3)cnn2c(N)c1-c1cccc(Cl)c1 [Example 87, 6-(3-Chloro-phenyl)-5-methyl-3-(3-morpholin-4-yl-phenyl)-pyrazolo[1,5-a]pyrimidin-7-ylamine]
